According to patent publication US9944602B2, “Piperidinone herbicides” (E. I. DU PONT DE NEMOURS AND COMPANY, priority 2014, dated 2018):

Columns and labels:
Type in all cases: in vivo
[1] = system: ragweed (common ragweed, Ambrosia elatior); assay: Test A postemergence ragweed; settings: Ambrosia artemisiifolia, post-emergence, 240 h, 0 to 100 scale, 0 is no effect, 100 is complete control, read-out: Plant response rating, Ragweed; for pest or weed control at 125 g/ha: 125 g ai/ha; for pest or weed control at 500 g/ha: 500 g ai/ha
Procedure, shortened: (§1)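 Compounds in non-phytotoxic solvent with surfactant, applied preemergence as directed soil spray on seeds in loam–sand blend, or postemergence to plants 2–10 cm tall at one- to two-leaf stage. Greenhouse ~10 d, then visual injury versus untreated controls, 0 (no effect) to 100 (complete control).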

[2] = system: foxtail, giant (giant foxtail, Setaria faberii); assay: Test A postemergence foxtail, giant; settings: Setaria faberi, post-emergence, 240 h, 0 to 100 scale, 0 is no effect, 100 is complete control, read-out: Plant response rating, Foxtail, Giant; for pest or weed control at 125 g/ha: 125 g ai/ha; for pest or weed control at 500 g/ha: 500 g ai/ha
Procedure, shortened: as §1

[3] = system: sedge, umbrella (small-flower umbrella sedge, Cyperus difformis); assay: Test B flooded paddy test sedge, umbrella; settings: Cyperus difformis, Table B, Flood, 250 g ai/ha, scale 0 to 100, read-out: Plant response rating
Procedure, shortened: (§2)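 Water-applied paddy treatment: compound dosed into 3 cm flood on 2-leaf plants, read visually versus controls after 13 to 15 d.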

[4] = system: wheat (Triticum aestivum); assay: Test A postemergence wheat; settings: Triticum aestivum, post-emergence, 240 h, 0 to 100 scale, 0 is no effect, 100 is complete control, read-out: Plant response rating, Wheat; for plant injury at 125 g/ha: 125 g ai/ha; for plant injury at 500 g/ha: 500 g ai/ha
Procedure, shortened: as §1

[5] = system: barnyardgrass (Echinochloa crus-galli); assay: Test A preemergence barnyardgrass; settings: Echinochloa crus-galli, pre-emergence, 240 h, 0 to 100 scale, 0 no effect, 100 complete control, read-out: Barnyardgrass plant response rating; for pest or weed control at 125 g/ha: 125 g ai/ha; for pest or weed control at 500 g/ha: 500 g ai/ha
Procedure, shortened: as §1

[6] = system: ryegrass, Italian (Italian ryegrass, Lolium multiflorum); assay: Test A preemergence ryegrass, Italian; settings: Lolium multiflorum, pre-emergence, 240 h, 0 to 100 scale, 0 no effect, 100 complete control, read-out: Ryegrass, Italian plant response rating; for pest or weed control at 125 g/ha: 125 g ai/ha; for pest or weed control at 500 g/ha: 500 g ai/ha
Procedure, shortened: as §1

[7] = system: ryegrass, Italian (Italian ryegrass, Lolium multiflorum); assay: Test A postemergence ryegrass, Italian; settings: Lolium multiflorum, post-emergence, 240 h, 0 to 100 scale, 0 is no effect, 100 is complete control, read-out: Plant response rating, Ryegrass, Italian; for pest or weed control at 125 g/ha: 125 g ai/ha; for pest or weed control at 500 g/ha: 500 g ai/ha
Procedure, shortened: as §1

[8] = system: blackgrass (Alopecurus myosuroides); assay: Test A postemergence blackgrass; settings: Alopecurus myosuroides, post-emergence, 240 h, 0 to 100 scale, 0 is no effect, 100 is complete control, read-out: Plant response rating, Blackgrass; for pest or weed control at 125 g/ha: 125 g ai/ha; for pest or weed control at 500 g/ha: 500 g ai/ha
Procedure, shortened: as §1

[9] = system: galium (catchweed bedstraw, Galium aparine); assay: Test A postemergence galium; settings: Galium, post-emergence, 240 h, 0 to 100 scale, 0 is no effect, 100 is complete control, read-out: Plant response rating, Galium; for pest or weed control at 125 g/ha: 125 g ai/ha; for pest or weed control at 500 g/ha: 500 g ai/ha
Procedure, shortened: as §1

[10] = system: ragweed (common ragweed, Ambrosia elatior); assay: Test A preemergence ragweed; settings: Ambrosia artemisiifolia, pre-emergence, 240 h, 0 to 100 scale, 0 no effect, 100 complete control, read-out: Ragweed plant response rating; for pest or weed control at 125 g/ha: 125 g ai/ha; for pest or weed control at 500 g/ha: 500 g ai/ha
Procedure, shortened: as §1

[11] = system: pigweed (Amaranthus retroflexus); assay: Test A preemergence pigweed; settings: Amaranthus retroflexus, pre-emergence, 240 h, 0 to 100 scale, 0 no effect, 100 complete control, read-out: Pigweed plant response rating; for pest or weed control at 125 g/ha: 125 g ai/ha; for pest or weed control at 500 g/ha: 500 g ai/ha
Procedure, shortened: as §1

[12] = system: foxtail, giant (giant foxtail, Setaria faberii); assay: Test A preemergence foxtail, giant; settings: Setaria faberi, pre-emergence, 240 h, 0 to 100 scale, 0 no effect, 100 complete control, read-out: Foxtail, Giant plant response rating; for pest or weed control at 125 g/ha: 125 g ai/ha; for pest or weed control at 500 g/ha: 500 g ai/ha
Procedure, shortened: as §1

kochia (Kochia scoparia) [13] = assay: Test A postemergence kochia; settings: Bassia scoparia, post-emergence, 240 h, 0 to 100 scale, 0 is no effect, 100 is complete control, read-out: Plant response rating, Kochia; for pest or weed control at 125 g/ha: 125 g ai/ha; for pest or weed control at 500 g/ha: 500 g ai/ha
Procedure, shortened: as §1

rice (Oryza sativa) = assay: Test B flooded paddy test rice; settings: Oryza sativa, Table B, Flood, 250 g ai/ha, scale 0 to 100, read-out: Plant response rating
Procedure, shortened: as §2

[14] = system: barnyardgrass (Echinochloa crus-galli); assay: Test A postemergence barnyardgrass; settings: Echinochloa crus-galli, post-emergence, 240 h, 0 to 100 scale, 0 is no effect, 100 is complete control, read-out: Plant response rating, Barnyardgrass; for pest or weed control at 125 g/ha: 125 g ai/ha; for pest or weed control at 500 g/ha: 500 g ai/ha
Procedure, shortened: as §1

corn (Zea mays) = assay: Test A postemergence corn; settings: Zea mays, post-emergence, 240 h, 0 to 100 scale, 0 is no effect, 100 is complete control; for Corn plant response rating (crop injury, 0 = no effect, 100 = complete kill) at 125 g/ha: 125 g ai/ha; for Corn plant response rating (crop injury, 0 = no effect, 100 = complete kill) at 500 g/ha: 500 g ai/ha
Procedure, shortened: as §1

kochia (Kochia scoparia) [15] = assay: Test A preemergence kochia; settings: Bassia scoparia, pre-emergence, 240 h, 0 to 100 scale, 0 no effect, 100 complete control, read-out: Kochia plant response rating; for pest or weed control at 125 g/ha: 125 g ai/ha; for pest or weed control at 500 g/ha: 500 g ai/ha
Procedure, shortened: as §1

[16] = system: pigweed (Amaranthus retroflexus); assay: Test A postemergence pigweed; settings: Amaranthus retroflexus, post-emergence, 240 h, 0 to 100 scale, 0 is no effect, 100 is complete control, read-out: Plant response rating, Pigweed; for pest or weed control at 125 g/ha: 125 g ai/ha; for pest or weed control at 500 g/ha: 500 g ai/ha
Procedure, shortened: as §1

[17] = system: ducksalad (Heteranthera limosa); assay: Test B flooded paddy test ducksalad; settings: Heteranthera limosa, Table B, Flood, 250 g ai/ha, scale 0 to 100, read-out: Plant response rating
Procedure, shortened: as §2

[18] = system: barnyardgrass (Echinochloa crus-galli); assay: Test B flooded paddy test barnyardgrass; settings: Echinochloa crus-galli, Table B, Flood, 250 g ai/ha, scale 0 to 100, read-out: Plant response rating
Procedure, shortened: as §2

SMILES | pest or weed control at 125 g/ha [1] | pest or weed control at 500 g/ha [1] | pest or weed control at 125 g/ha [2] | pest or weed control at 500 g/ha [2] | pest or weed control at 250 g/ha [3] | plant injury at 125 g/ha [4] | plant injury at 500 g/ha [4] | pest or weed control at 125 g/ha [5] | pest or weed control at 500 g/ha [5] | pest or weed control at 125 g/ha [6] | pest or weed control at 500 g/ha [6] | pest or weed control at 125 g/ha [7] | pest or weed control at 500 g/ha [7] | pest or weed control at 125 g/ha [8] | pest or weed control at 500 g/ha [8] | pest or weed control at 125 g/ha [9] | pest or weed control at 500 g/ha [9] | pest or weed control at 125 g/ha [10] | pest or weed control at 500 g/ha [10] | pest or weed control at 125 g/ha [11] | also measured
CN1CC[C@H](c2ccc(F)cc2)[C@@H](C(=O)Nc2ccccc2C(F)(F)F)C1=O [Compound 53, (3S,4S)-4-(4-fluorophenyl)-1-methyl-2-oxo-N-[2-(trifluoromethyl)phenyl]-3-piperidinecarboxamide] | 0% | 0% | 0% | 20% | 0% | 0% | 20% | 0% | 80% | 0% | 0% | 0% | 0% | 0% | 20% | 0% | 0% | 0% | 0% | 0% | pest or weed control at 500 g/ha [11]: 50%; pest or weed control at 125 g/ha [12]: 0%; pest or weed control at 500 g/ha [12]: 90%; pest or weed control at 125 g/ha (kochia (Kochia scoparia) [13]): 0%; pest or weed control at 500 g/ha (kochia (Kochia scoparia) [13]): 0%; plant injury at 250 g/ha (rice (Oryza sativa)): 0%; pest or weed control at 125 g/ha [14]: 0%; pest or weed control at 500 g/ha [14]: 0%; Corn plant response rating (crop injury, 0 = no effect, 100 = complete kill) at 125 g/ha (corn (Zea mays)): 0%; Corn plant response rating (crop injury, 0 = no effect, 100 = complete kill) at 500 g/ha (corn (Zea mays)): 20%; pest or weed control at 125 g/ha (kochia (Kochia scoparia) [15]): 0%; pest or weed control at 500 g/ha (kochia (Kochia scoparia) [15]): 0%; pest or weed control at 125 g/ha [16]: 0%; pest or weed control at 500 g/ha [16]: 0%; pest or weed control at 250 g/ha [17]: 0%; pest or weed control at 250 g/ha [18]: 0%
O=C1NCC[C@H](c2ccc(F)cc2)[C@H]1C(=O)Nc1ccccc1C(F)(F)F [Compound 57, (3R,4S)-4-(4-fluorophenyl)-2-oxo-N-[2-(trifluoromethyl)phenyl]-3-piperidinecarboxamide] | 0% | 0% | 0% | 60% | 0% | 0% | 0% | 30% | 70% | 0% | 0% | 0% | 0% | 0% | 0% | 0% | 0% | 0% | 0% | 0% | pest or weed control at 500 g/ha [11]: 0%; pest or weed control at 125 g/ha [12]: 60%; pest or weed control at 500 g/ha [12]: 90%; pest or weed control at 125 g/ha (kochia (Kochia scoparia) [13]): 0%; pest or weed control at 500 g/ha (kochia (Kochia scoparia) [13]): 0%; plant injury at 250 g/ha (rice (Oryza sativa)): 0%; pest or weed control at 125 g/ha [14]: 0%; pest or weed control at 500 g/ha [14]: 70%; Corn plant response rating (crop injury, 0 = no effect, 100 = complete kill) at 125 g/ha (corn (Zea mays)): 0%; Corn plant response rating (crop injury, 0 = no effect, 100 = complete kill) at 500 g/ha (corn (Zea mays)): 0%; pest or weed control at 125 g/ha (kochia (Kochia scoparia) [15]): 0%; pest or weed control at 500 g/ha (kochia (Kochia scoparia) [15]): 0%; pest or weed control at 125 g/ha [16]: 0%; pest or weed control at 500 g/ha [16]: 0%; pest or weed control at 250 g/ha [17]: 40%; pest or weed control at 250 g/ha [18]: 0%
